Results: ChEMBL document CHEMBL1128087, “Novel substituted indolocarbazoles as potent and selective inhibitors of protein kinase C” (Bioorg Med Chem Lett, 1995)

What follows are compounds tested against cAMP-dependent protein kinase (PKA) (Homo sapiens) (UniProt P22694+P17612+P22612) (assay: In vitro inhibitory activity against Protein Kinase A at a concentration of 10 uM).
Format: protein assay
Compound CN1CCCC1CCNC(=O)CCn1c2ccccc2c2c3c(c4c5ccccc5[nH]c4c21)C(=O)NC3 (stereo not drawn) has an inhibition of 25%. Compound O=C(CCn1c2ccccc2c2c3c(c4c5ccccc5[nH]c4c21)C(=O)NC3)NCCN1CCCCC1 has an inhibition of 42%. In the case of O=C(CCn1c2ccccc2c2c3c(c4c5ccccc5[nH]c4c21)C(=O)NC3)NCC1CCOC1 (stereo not drawn), the inhibition is reported as 41%. COC(=O)c1cc(C(=O)c2cc(C(=O)c3cc(NC(=O)CCn4c5ccccc5c5c6c(c7c8ccccc8[nH]c7c54)C(=O)NC6)cn3C)cn2C)cn1C gave an inhibition of 40%. With COC(=O)c1cc(C(=O)c2cc(NC(=O)CCn3c4ccccc4c4c5c(c6c7ccccc7[nH]c6c43)C(=O)NC5)cn2C)cn1C the inhibition was 43%. With O=C(CCn1c2ccccc2c2c3c(c4c5ccccc5[nH]c4c21)C(=O)NC3)NCCN1CCOCC1 the inhibition was 49%. For COC(=O)c1cc(NC(=O)CCn2c3ccccc3c3c4c(c5c6ccccc6[nH]c5c32)C(=O)NC4)cn1C, the inhibition was 40%. Compound CN(C)CCCNC(=O)CCn1c2ccccc2c2c3c(c4c5ccccc5[nH]c4c21)C(=O)NC3 has an inhibition of 41%.
